One data set deals with HCC44. Briefly: Cancer cell line panel proliferation (CellTiter-Glo). The format is cell-based. The settings on record: HCC44, Lung, 72 hours. How it is done:
(§1) Screening against diverse cancer cell lines was performed to identify tumour types displaying sensitivity to atropisomers A-1 and A-2. A panel of 48 cancer-derived cell lines was screened in a high-throughput proliferation assay using dilutions of atropisomers A-1/A-2. Cell lines that were screened included those representing cancer of the pancreas, large intestine/colorectum, lung, brain and nerves, and lymphoma and leukaemia cell lines. Cell lines were treated with serial half-log dilutions of compound and assayed 72 hours later for proliferation using CellTiter-Glo Assay (Promega). IC50 values were calculated by fitting the dose-response data using a nonlinear regression model.
On the technique in general: In ATP-based viability assays light output follows the ATP content of the culture.

The test system of a further data set is MIA PaCa-2. Described as above. In kind it is cell-based. The following applies: MIA PaCa-2, Pancreas, 72 hours. On the procedure: as §1
For a further data set, the system named is Panc 10.05. Described as above. In kind it is cell-based. The following applies: Panc 10.05, Pancreas, 72 hours. On the procedure: as §1
For a further data set, the system named is MV-4-11. The description is as above. The format is cell-based. The following applies: MV-4-11, Blood/Leukaemia, 72 hours. On the procedure: as §1
For a further data set, the system named is BxPC-3. Described as above. The format is cell-based. The following applies: BxPC-3, Pancreas, 72 hours. On the procedure:
as §1

Another data set has as its system Kasumi-1. Described as above. The following applies: Kasumi-1, Blood/Leukaemia, 72 hours. The format is cell-based. On the procedure:
as §1

The next data set concerns GRANTA-519. Described as above. The settings on record: GRANTA-519, Blood/Lymphoma, 72 hours. In kind it is cell-based. On the procedure: as §1
A further data set relates to NCI-H1975. Described as above. In kind it is cell-based. The following applies: NCI-H1975, Lung, 72 hours. On the procedure:
as §1

Another data set has as its system RKO. Described as above. The format is cell-based. The settings on record: Large intestine/Colorectum, 72 hours. How it is done: as §1
Another data set concerns NCI-H460. The description is as above. The following applies: NCI-H460, Lung, 72 hours. The format is cell-based. On the procedure:
as §1

A further data set concerns COLO 205. Described as above. In kind it is cell-based. The settings on record: COLO 205, Large intestine/Colorectum, 72 hours. How it is done:
as §1

In the next data set the test system is DOHH-2. Described as above. The format is cell-based. The settings on record: DOHH-2, Blood/Lymphoma, 72 hours. How it is done: as §1
For a further data set, the system named is HT-29. Described as above. In kind it is cell-based. The settings on record: HT-29, Large intestine/Colorectum, 72 hours. How it is done:
as §1

A further data set relates to U118 MG. Described as above. The format is cell-based. The settings on record: Brain&Nerves, 72 hours. How it is done: as §1
Data set [1] deals with U87MG Human Glioblastoma Cancer Cell. Description: U87MG cell viability (SRB assay). The format is cell-based. The settings on record: 72 hours, read-out: IC50 for inhibition of cell growth. How it is done: The following protocol was used to measure the effects of atropisomers A-1 and A-2 on U87MG cell viability. U87MG cells were grown in their recommended growth media/supplements (ATCC). Cells were seeded at a concentration of 5000 cells per well into 96 well plates overnight at 37° C., 5% CO2. Cells were treated with relevant concentrations of test compound for 72 hours. After 72 h incubation, viability was established using sulforhodamine B (SRB) colorimetric assay. Percentage viability was calculated against the mean of the DMSO treated control samples, and IC50 values for inhibition of cell growth were calculated using GraphPad Prism software by nonlinear regression (4 parameter logistic equation).
(The SRB assay estimates cell density from bound dye.)

For data set [2], the system named is U87-Luc cells intracerebrally implanted. Description: U87-Luc orthotopic xenograft model. In kind it is in vivo, male athymic nude mice. The settings on record: oral 100 mg/kg on days 1, 4, 7, 10 and 13; Day 15. On the procedure:
U87-Luc cells were intracerebrally implanted into the brains of male athymic nude mice and tumour growth was monitored by bioluminescent signal. In the treatment group animals were given an oral dose of 100 mg/kg of atropisomer A-2 on days 1, 4, 7, 10 and 13. The control group animals were given vehicle only.

A short description of data set [3]: Oral bioavailability and brain exposure in mouse PK. The format is in vivo, Male CD-1 mice. The following applies: mice. On the procedure:
Atropisomer A-2 was evaluated in an in vivo mouse model to determine brain and plasma concentrations following p.o. and i.v. dosing. Male CD-1 mice were dosed with atropisomer A-2, either by i.v. administration (2 mg/kg) or by p.o. administration (10 mg/kg). Eight samples were taken for analysis in the i.v. leg at 2, 10, 30 min, 1, 2, 4, 8, and 24 (for i.v) and 9 samples in the p.o. leg at 15, 30 min, 1, 2, 4, 8, 24, 48 and 72 hrs. Atropisomer A-2 was formulated in 10% DMSO/[…] hydroxypropyl-beta-cyclodextrin (20% w/v in water) for i.v. and p.o. dosing. N=3 mice per time point. Post dosing, terminal blood samples were taken from individual animals and delivered into labelled polypropylene tubes containing anticoagulant (EDTA). The samples were held on wet ice for a maximum of 30 min while sampling of all the animals in the cohort was completed. The blood samples were centrifuged for plasma (4° C., 21100 g for 5 min) and the resulting plasma transferred into corresponding labelled tubes. Terminal brains from each PO dosed animal were excised, rinsed with saline and placed into pre-weighed labelled polypropylene tubes and the samples re-weighed prior to storage. Quantitative bioanalysis was carried out using liquid chromatography—mass spectroscopy was performed. The results are shown in Tables 14 and 15 below and in FIGS. 12 and 13.

The results in this text go back to patent US12637424B2, “Pharmaceutical salt of an arylpyrrole derivative” (SENTINEL ONCOLOGY LIMITED, priority 2020, dated 2026).

Where two headings read alike, the source gives them in different places.

By IC50 is commonly meant the concentration needed to halve the response being measured. Consider `CN(C)CCNC(=O)c1ccc(-c2ccc(-c3ccc(Cl)cc3)n2-c2ccccc2C(F)(F)F)cc1` (single isomer, unassigned; atropisomer a) [Atropisomer A-1], for which the concentration for half-maximal inhibition (IC50) turned out to be 8260 nM in the data set on HCC44; 9170 nM in the data set on MIA PaCa-2; 9000 nM in the data set with Panc 10.05; 6490 nM in the data set on MV-4-11; 6970 nM in the data set on BxPC-3; 5130 nM with Kasumi-1. The IC50 came out at 7420 nM in the data set with GRANTA-519; 5140 nM in the data set on NCI-H1975; 6170 nM with RKO; 8130 nM in the data set on NCI-H460; 6750 nM with COLO 205; 5640 nM with DOHH-2. Besides, the figures for the IC50 (in the data set with HT-29; in the data set on U118 MG; in data set [1]) were 4530 nM, 7600 nM and 4600 nM, respectively.
For `CN(C)CCNC(=O)c1ccc(-c2ccc(-c3ccc(Cl)cc3)n2-c2ccccc2C(F)(F)F)cc1` (single isomer, unassigned) [Atropisomer A-2], the half-inhibitory concentration (IC50) in the data set on HCC44 (Homo sapiens) was found to be 480 nM; in the data set with MIA PaCa-2 (Homo sapiens), 330 nM; in the data set with Panc 10.05 (Homo sapiens, Panc1005), 1140 nM; in the data set on MV-4-11 (Homo sapiens, MV4-11), 280 nM; in the data set on BxPC-3 (Homo sapiens), 300 nM; with Kasumi-1 (Homo sapiens) it was 330 nM. Besides, the IC50 with GRANTA-519 (Homo sapiens) came to 220 nM; in the data set on NCI-H1975 (Homo sapiens), 630 nM; with RKO (Homo sapiens) it was 160 nM; in the data set on NCI-H460 (Homo sapiens) it was 300 nM; in the data set on COLO 205 (Homo sapiens), 380 nM; in the data set with DOHH-2 (Homo sapiens), 230 nM. Also, the 50% inhibitory concentration (IC50) is 450 nM with HT-29 (Homo sapiens); 470 nM with U118 MG (Homo sapiens, U-118-MG); 220 nM in data set [1] (Homo sapiens, U-87 MG). The “bioluminescent tumour signal, treated versus control” value in data set [2] was “a decrease in tumour signal”. This compound also showed a CI in [3] (2 mg/Kg IV, plasma) of 20.5 mL/min/kg. The compound further gave a F in data set [3] (10 mg/Kg PO vs 2 mg/Kg IV) of 76%.
